Laboratory results as given in patent US8003660B2, “Modulators of muscarinic receptors” (Vertex Pharmaceuticals Incorporated, priority 2006, dated 2011).

Experiments:
Type in all cases: cell-based
M3 muscarinic receptor = biological target: T1, M3 muscarinic receptor (Homo sapiens, UniProt P20309); assay: Functional mobilization of intracellular calcium (FLIPR) in CHO cells expressing M3; details: for EC50: CHO cells expressing M3, FLIPR calcium; for Emax: CHO, 100% = maximum response obtained with the Carbachol control, read-out: M3 Efficacy
T1 construct: expressed in transfected cells; host or cells: CHO (M3-CHO)
Summary of the method: (§1)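 Recombinant CHO cells loaded with Fluo-3 AM or Calcium 3 dye in pH 7.4 buffer containing 1 mM probenecid, with 0.5% final DMSO. For agonism, compound is added directly. For inhibition, it is preincubated 15 min, or co-applied, before carbachol at EC80. FLIPR fluorescence (ex 488, em 540 nm) is recorded for 60 s.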

M4 muscarinic receptor = biological target: T2, M4 muscarinic receptor (Homo sapiens, UniProt P08173); assay: Functional mobilization of intracellular calcium (FLIPR) in CHO cells expressing M4; details: for EC50: CHO cells expressing M4, FLIPR calcium; for Emax: CHO, 100% = maximum response obtained with the Carbachol control, read-out: M4 Efficacy
T2 construct: expressed in transfected cells; host or cells: CHO (M4-CHO)
T2 sequence (P08173 1-479): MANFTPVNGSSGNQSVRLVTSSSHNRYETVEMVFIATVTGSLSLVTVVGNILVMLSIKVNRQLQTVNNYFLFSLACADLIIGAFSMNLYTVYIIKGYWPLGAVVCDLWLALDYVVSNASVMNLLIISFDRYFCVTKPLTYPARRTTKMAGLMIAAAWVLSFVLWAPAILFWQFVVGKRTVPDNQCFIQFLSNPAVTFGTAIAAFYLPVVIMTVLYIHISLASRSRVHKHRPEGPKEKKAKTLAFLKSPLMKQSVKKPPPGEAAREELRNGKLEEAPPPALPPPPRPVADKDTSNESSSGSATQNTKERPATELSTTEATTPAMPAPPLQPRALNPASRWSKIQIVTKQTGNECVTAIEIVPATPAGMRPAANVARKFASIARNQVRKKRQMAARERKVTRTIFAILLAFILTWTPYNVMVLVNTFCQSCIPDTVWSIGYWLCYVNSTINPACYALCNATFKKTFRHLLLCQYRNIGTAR
Summary of the method: as §1

M1 muscarinic receptor = biological target: T3, M1 muscarinic receptor (Homo sapiens, UniProt P11229); assay: Functional mobilization of intracellular calcium (FLIPR) in CHO cells expressing M1; details: for EC50: CHO cells expressing M1, FLIPR calcium; for Emax: CHO, 100% = maximum response obtained with the Carbachol control, read-out: M1 Efficacy
T3 construct: expressed in transfected cells; host or cells: CHO (M1-CHO)
T3 sequence (P11229 1-460): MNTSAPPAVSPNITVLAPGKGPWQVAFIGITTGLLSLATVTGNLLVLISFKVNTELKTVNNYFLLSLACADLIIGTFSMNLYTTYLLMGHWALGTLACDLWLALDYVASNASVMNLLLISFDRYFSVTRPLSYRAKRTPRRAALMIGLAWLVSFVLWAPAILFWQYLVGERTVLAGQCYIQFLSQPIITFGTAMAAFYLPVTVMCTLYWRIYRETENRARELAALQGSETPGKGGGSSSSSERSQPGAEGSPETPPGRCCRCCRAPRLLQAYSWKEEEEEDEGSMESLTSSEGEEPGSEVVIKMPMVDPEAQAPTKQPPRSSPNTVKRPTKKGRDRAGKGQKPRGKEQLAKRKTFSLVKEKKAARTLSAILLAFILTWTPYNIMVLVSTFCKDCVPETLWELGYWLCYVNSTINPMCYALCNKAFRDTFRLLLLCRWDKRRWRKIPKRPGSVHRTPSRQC
Summary of the method: as §1

M2 muscarinic receptor = biological target: T4, M2 muscarinic receptor (Homo sapiens, UniProt P08172); assay: Functional mobilization of intracellular calcium (FLIPR) in CHO cells expressing M2; details: for EC50: CHO cells expressing M2, FLIPR calcium; for Emax: CHO, 100% = maximum response obtained with the Carbachol control, read-out: M2 Efficacy
T4 construct: expressed in transfected cells; host or cells: CHO (M2-CHO)
T4 sequence (P08172 1-466): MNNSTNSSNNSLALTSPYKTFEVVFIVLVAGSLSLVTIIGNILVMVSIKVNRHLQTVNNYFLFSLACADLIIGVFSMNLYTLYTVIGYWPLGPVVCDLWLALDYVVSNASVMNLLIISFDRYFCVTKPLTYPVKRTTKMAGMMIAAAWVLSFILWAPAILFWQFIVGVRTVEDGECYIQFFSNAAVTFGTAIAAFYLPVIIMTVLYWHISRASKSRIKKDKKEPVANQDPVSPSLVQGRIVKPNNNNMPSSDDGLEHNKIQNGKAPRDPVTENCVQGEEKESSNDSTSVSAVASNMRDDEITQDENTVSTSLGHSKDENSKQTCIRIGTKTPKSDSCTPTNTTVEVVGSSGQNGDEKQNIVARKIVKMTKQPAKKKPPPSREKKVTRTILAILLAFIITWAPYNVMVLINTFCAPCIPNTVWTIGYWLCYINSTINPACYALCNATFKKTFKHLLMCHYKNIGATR
Summary of the method: as §1

T1 sequence (P20309 whole entry): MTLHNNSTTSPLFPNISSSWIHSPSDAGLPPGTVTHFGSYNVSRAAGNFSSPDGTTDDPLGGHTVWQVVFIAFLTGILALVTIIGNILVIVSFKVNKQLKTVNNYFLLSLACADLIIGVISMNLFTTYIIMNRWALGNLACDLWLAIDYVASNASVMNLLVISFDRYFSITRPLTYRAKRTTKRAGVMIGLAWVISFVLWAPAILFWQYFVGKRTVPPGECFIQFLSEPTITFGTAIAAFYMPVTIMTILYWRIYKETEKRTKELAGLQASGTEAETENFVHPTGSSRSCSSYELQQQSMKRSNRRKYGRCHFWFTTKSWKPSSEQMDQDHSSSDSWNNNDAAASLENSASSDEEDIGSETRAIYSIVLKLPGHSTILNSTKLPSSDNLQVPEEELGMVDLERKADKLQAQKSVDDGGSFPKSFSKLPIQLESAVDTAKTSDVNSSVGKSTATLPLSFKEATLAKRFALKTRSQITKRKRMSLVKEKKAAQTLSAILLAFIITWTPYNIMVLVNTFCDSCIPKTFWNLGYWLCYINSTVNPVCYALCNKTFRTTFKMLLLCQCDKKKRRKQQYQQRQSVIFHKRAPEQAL

SMILES	EC50 (M3 muscarinic receptor)	Emax (M3 muscarinic receptor)	EC50 (M4 muscarinic receptor)	Emax (M4 muscarinic receptor)	EC50 (M1 muscarinic receptor)	Emax (M1 muscarinic receptor)	EC50 (M2 muscarinic receptor)	Emax (M2 muscarinic receptor)
CCCC(CCC)N1CCC2(CC[C@H](NC(=O)C3CC3)c3ccccc32)CC1 [compound 48]	> 5 µM	< 25%	> 5 µM	< 25%	> 5 µM	< 25%	> 5 µM	< 25%
CSC(C)CCN1CCC2(CC[C@H](NC(C)=O)c3ccccc32)CC1 (stereo partly drawn) [compound 49]	> 5 µM	< 25%	< 2 µM	25 to 100%	2 to 5 µM	25 to 100%	> 5 µM	< 25%
COC(=O)CN(C(C)=O)[C@H]1CCC2(CCN(CCC(C)(C)C)CC2)c2ccccc21 [compound 50]	> 5 µM	< 25%	< 2 µM	25 to 100%	> 5 µM	25 to 100%	> 5 µM	< 25%
CN(C)C(=O)N(C)[C@H]1CCC2(CCN(CCC(C)(C)C)CC2)c2ccccc21 [compound 51]	> 5 µM	< 25%	< 2 µM	25 to 100%	< 2 µM	25 to 100%	> 5 µM	< 25%
C[C@H](C(=O)N[C@H]1CCC2(CCN(CCC(C)(C)C)CC2)c2cc(F)ccc21)N1CCCC1=O [compound 52]	> 5 µM	< 25%	< 2 µM	25 to 100%	< 2 µM	25 to 100%	< 2 µM	< 25%
CC(CC(C)(C)C)N1CCC2(CC[C@H](NC(=O)N(C)C)c3ccccc32)CC1 (stereo partly drawn) [compound 53]	> 5 µM	< 25%	< 2 µM	25 to 100%	> 5 µM	< 25%	> 5 µM	< 25%
CCN(C(=O)CCC(C)=O)[C@H]1CCC2(CCN(CCC(C)(C)C)CC2)c2ccccc21 [compound 54]	> 5 µM	< 25%	< 2 µM	25 to 100%	< 2 µM	25 to 100%	> 5 µM	< 25%
CC(C)(C)CCN1CCC2(CC[C@@H](NC(=O)C3CCCN(C(=O)C4CC4)C3)c3ccccc32)CC1 (stereo partly drawn) [compound 55]	> 5 µM	< 25%	< 2 µM	25 to 100%	2 to 5 µM	< 25%	< 2 µM	< 25%
CC[C@@H](C)CN1CCC2(CC[C@H](NC(C)=O)c3ccccc32)CC1 [compound 56]	> 5 µM	< 25%	< 2 µM	25 to 100%	< 2 µM	25 to 100%	< 2 µM	25 to 100%
CC(C)(C)CCN1CCC2(CC[C@H](N3CCCCC3=O)c3ccccc32)CC1 [compound 57]	> 5 µM	< 25%	< 2 µM	25 to 100%	2 to 5 µM	25 to 100%	> 5 µM	< 25%
Cn1cc(C(=O)N[C@H]2CCC3(CCN(CCC(C)(C)C)CC3)c3ccccc32)cn1 [compound 58]	> 5 µM	< 25%	< 2 µM	25 to 100%	< 2 µM	25 to 100%	< 2 µM	25 to 100%
CC(=O)N1CCCC(C(=O)N[C@H]2CCC3(CCN(CCC(C)(C)C)CC3)c3cc(F)ccc32)C1 (stereo partly drawn) [compound 59]	> 5 µM	< 25%	< 2 µM	25 to 100%	< 2 µM	25 to 100%	2 to 5 µM	< 25%
